Laboratory results published in patent publication US10752588B2 (The Broad Institute, Inc., priority 2014, dated 2020).

How the values were obtained:
human D2R/β-arrestin [1] = biological target: T1, human D2R/β-arrestin (Homo sapiens (Human), UniProt P14416); assay: β-Arrestin agonist assay (PathHunter); type: cell-based; conditions: CHO-K1 cell line expressing human D2R/β-arrestin
Procedure: (§1) The assays can be performed using proper detection reagents either prepared using routine methods known in the art or commercially available (e.g., PathHunter® β-Arrestin Detecting Kit (DiscoveRX)). Cells are grown to the necessary confluence and then detached. The cells are then centrifuged, washed, resuspended, and seeded into a container (e.g., 384-well plate). The cells are incubated (e.g., at 37° C., 5% CO2) for the appropriate period of time (e.g., 24 hours), before various compounds (e.g., a compound of the invention or a control compound) are added to the cells. After incubation of the cells with the compounds, detection reagents (e.g., a buffer containing Emerald II: Galactor-Star as provided DiscoveRX) are added to the cells. The read-out (e.g., luminescence, or fluorescence) is detected using standard equipment.
The detection reagent (9.6 μL, Buffer:Emerald II:Galactor-Star in a 19:5:1 ratio, i.e., 14.06 mL:3.7 mL:0.74 mL=18.5 mL) was then added to the agonist plates.

human D2R/β-arrestin [2] = biological target: T1, human D2R/β-arrestin; assay: Gi/cAMP agonist assay (Lance Ultra cAMP, Forskolin); type: cell-based; conditions: CHO-K1 cell line expressing human D2R/β-arrestin
Procedure: as §1, with “PE Lance Ultra cAMP kit (TRF0263)).” for “PathHunter® β-Arrestin Detecting Kit (DiscoveRX)).”, “Afterwards, cAMP inducing agents (e.g., Forskolin) are added to and incubated with” for “After incubation of”, “before” for “with the compounds,”, “cAMP antibody, such” for “buffer containing Emerald II: Galactor-Star”, “ULight-anti-cAMP solution)” for “provided DiscoveRX)”, “Read-out” for “The read-out”
Compounds were pin-transferred (100 nL) to the cells, and incubated for 10 min. at 37° C. […] Eu-cAMP tracer solution (100, PerkinElmer, […] in 17.64 ml kit buffer) and ULight-anti-cAMP solution (100, 120 μL antibody in 17.88 ml kit buffer) was then added to each well.

human D2R/β-arrestin [3] = biological target: T1, human D2R/β-arrestin; assay: cell-based; conditions: β-arrestin Antagonist, CHO-K1 cell line expressing human D2R/β-arrestin; quinpirole used as agonist
human D2R/β-arrestin [4] = biological target: T1, human D2R/β-arrestin; assay: cell-based; conditions: cAMP Antagonist, CHO-K1 cell line expressing human D2R/β-arrestin; quinpirole used as agonist

T1 sequence (P14416 whole entry): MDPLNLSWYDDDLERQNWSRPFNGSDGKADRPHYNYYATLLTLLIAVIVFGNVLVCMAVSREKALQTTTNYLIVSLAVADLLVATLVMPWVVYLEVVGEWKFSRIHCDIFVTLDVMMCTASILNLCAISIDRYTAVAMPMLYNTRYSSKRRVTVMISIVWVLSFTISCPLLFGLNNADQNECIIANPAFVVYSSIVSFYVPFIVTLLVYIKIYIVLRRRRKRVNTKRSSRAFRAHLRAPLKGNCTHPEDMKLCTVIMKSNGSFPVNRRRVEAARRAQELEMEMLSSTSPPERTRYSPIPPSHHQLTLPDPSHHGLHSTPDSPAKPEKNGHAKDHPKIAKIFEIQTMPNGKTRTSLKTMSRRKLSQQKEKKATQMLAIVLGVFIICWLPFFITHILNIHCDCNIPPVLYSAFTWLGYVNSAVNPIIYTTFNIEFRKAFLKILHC

EC50 (human D2R/β-arrestin [1]) | EC50 (human D2R/β-arrestin [2]) | IC50 (human D2R/β-arrestin [3]) | IC50 (human D2R/β-arrestin [4]) | SMILES
> 30 µM | > 30 µM | 0.1 to 1 µM | 0.1 to 1 µM | Fc1ccccc1OCCN1CCC(CNC(c2ccc(Cl)cc2)c2ccccn2)CC1 (stereo not drawn) [Compound 121, 1-(4-chlorophenyl)-N-((1-(2-(2-fluorophenoxy)ethyl)piperidin-4-yl)methyl)-1-(pyridin-2-yl) methanamine]
> 30 µM | 1 to 10 µM | 1 to 10 µM | > 30 µM | O=C(NC(c1ccccc1F)c1ccccc1F)C1CCN(CCOc2ccccc2)CC1 [Compound 48, N-(bis(2-fluorophenyl)methyl)-1-(2-phenoxyethyl)piperidine-4-carboxamide]
> 30 µM | > 30 µM | 1 to 10 µM | 1 to 10 µM | c1ccc(OCCN2CCC(CNC(c3ccc4c(c3)OCO4)c3ccccn3)CC2)cc1 (single isomer, unassigned) [Compound 102a, 1-(benzo[d][1,3]dioxol-5-yl)-N-((1-(2-phenoxyethyl)piperidin-4-yl)methyl)-1-(pyridin-2-yl)methanamine]
> 30 µM | > 30 µM | 1 to 10 µM | 0.1 to 1 µM | O=C(NC(c1ccc(Cl)cc1)c1ccccn1)C1CCN(CCCCOc2ccccc2)CC1 (stereo not drawn) [Compound 110]
> 30 µM | 10 to 30 µM | 1 to 10 µM | 0.1 to 1 µM | O=C(NC(c1cccc(OC(F)(F)F)c1)c1ccccn1)C1CCN(CCOc2ccccc2F)CC1 (single isomer, unassigned) [Compound 93a, 1-(2-(2-fluorophenoxy)ethyl)-N-(pyridin-2-yl(3-(trifluoromethoxy)phenyl)methyl)piperidine-4-carboxamide]
> 30 µM | 0.1 to 1 µM | 1 to 10 µM | > 30 µM | O=C(NC(c1ccc(Cl)cc1)c1ccncc1F)C1CCN(CCOc2ccccc2)CC1 (stereo not drawn) [Compound 117, N-((4-chlorophenyl)(3-fluoropyridin-4-yl)methyl)-1-(2-phenoxyethyl) piperidine-4-carboxamide]
> 30 µM | > 30 µM | 1 to 10 µM | 0.1 to 1 µM | O=C(NC(c1ccc(Cl)cc1)c1ccccn1)C1CCN(CCOc2cccc(Cl)c2)CC1 (single isomer, unassigned) [Compound 1a, 1-(2-(3-chlorophenoxy)ethyl)-N-((4-chlorophenyl)(pyridin-2-yl)methyl)piperidine-4-carboxamide]
> 30 µM | 0.1 to 1 µM | 1 to 10 µM | > 30 µM | O=C(NC(c1ccc(Cl)cc1)c1ccccn1)C1CCN(CCOc2ccc(F)cc2F)CC1 (single isomer, unassigned) [Compound 115a, N-((4-chlorophenyl)(pyridin-2-yl)methyl)-1-(2-(2,4-difluorophenoxy)ethyl)piperidine-4-carboxamide]
> 30 µM | 1 to 10 µM | > 30 µM | > 30 µM | COc1cccc(C(NC(=O)C2CCN(CCOc3ccccc3)CC2)c2cocn2)c1 (stereo not drawn) [Compound 129, N-((3-methoxyphenyl)(oxazol-4-yl)methyl)-1-(2-phenoxyethyl)piperidine-4-carboxamide]
> 30 µM | 0.1 to 1 µM | 0.1 to 1 µM | 0.1 to 1 µM | O=C(NC(c1ccc(Cl)cc1)c1ccncc1F)C1CCN(CCOc2ccccc2F)CC1 (stereo not drawn) [Compound 91, N-((4-chlorophenyl)(3-fluoropyridin-4-yl)methyl)-1-(2-(2-fluorophenoxy)ethyl)piperidine-4-carboxamide]
> 30 µM | 1 to 10 µM | 1 to 10 µM | > 30 µM | CN(CC1CCN(CCOc2ccccc2)CC1)C(c1ccc(F)cc1)c1ccccn1 (single isomer, unassigned) [Compound 74a, 1-(4-fluorophenyl)-N-methyl-N-((1-(2-phenoxyethyl)piperidin-4-yl)methyl)-1-(pyridin-2-yl)methanamine]
> 30 µM | 0.1 to 1 µM | 0.1 to 1 µM | 0.1 to 1 µM | c1ccc(OCCN2CCC(CNC(c3ccc4c(c3)OCO4)c3ccccn3)CC2)cc1 (stereo not drawn) [Compound 102, 1-(benzo[d][1,3]dioxol-5-yl)-N-((1-(2-phenoxyethyl)piperidin-4-yl)methyl)-1-(pyridin-2-yl)methanamine]
> 30 µM | 0.1 to 1 µM | 0.1 to 1 µM | 0.1 to 1 µM | CN(CC1CCN(CCOc2ccccc2)CC1)C(c1ccc(F)cc1)c1ccccn1 (single isomer, unassigned) [Compound 74b, 1-(4-fluorophenyl)-N-methyl-N-((1-(2-phenoxyethyl)piperidin-4-yl)methyl)-1-(pyridin-2-yl)methanamine]
> 30 µM | 0.1 to 1 µM | 1 to 10 µM | > 30 µM | O=C(NC(c1ccc(Cl)cc1)c1ccncc1F)C1CCN(CCOc2ccccc2F)CC1 (single isomer, unassigned) [Compound 91a, N-((4-chlorophenyl)(3-fluoropyridin-4-yl)methyl)-1-(2-(2-fluorophenoxy)ethyl)piperidine-4-carboxamide]
> 30 µM | > 30 µM | 1 to 10 µM | 1 to 10 µM | Fc1ccc(OCCN2CCC(CNC(c3ccc(Cl)cc3)c3ccccn3)CC2)cc1 (stereo not drawn) [Compound 132, 1-(4-chlorophenyl)-N-((1-(2-(4-fluorophenoxy)ethyl)piperidin-4-yl)methyl)-1-(pyridin-2-yl)methanamine]
> 30 µM | > 30 µM | 10 to 30 µM | 1 to 10 µM | CN1CCC(C(=O)NC(c2ccc(Cl)cc2)c2ccccn2)CC1 (stereo not drawn) [Compound 64, N-((4-chlorophenyl)(pyridin-2-yl)methyl)-1-methylpiperidine-4-carboxamide]
< 0.1 µM | < 0.1 µM | 0.1 to 1 µM | > 30 µM | CC1(C(=O)NC(c2ccc(F)cc2)c2ccccn2)CCN(CCOc2ccccc2F)CC1 (stereo not drawn) [Compound 71, 1-(2-(2-fluorophenoxy)ethyl)-N-((4-fluorophenyl)(pyridin-2-yl)methyl)-4-methylpiperidine-4-carboxamide]
> 30 µM | 0.1 to 1 µM | 1 to 10 µM | > 30 µM | COc1cccc(C(NC(=O)C2CCN(CCOc3ccccc3)CC2)c2ccccc2F)c1 (stereo not drawn) [Compound 50]
> 30 µM | > 30 µM | < 0.1 µM | < 0.1 µM | CN(CC1CCN(CCOc2ccccc2F)CC1)C(c1ccc(Cl)cc1)c1ccccn1 (single isomer, unassigned) [Compound 72b, 1-(4-chlorophenyl)-N-((1-(2-(2-fluorophenoxy)ethyl)piperidin-4-yl)methyl)-N-methyl-1-(pyridin-2-yl)methanamine]
> 30 µM | 1 to 10 µM | 1 to 10 µM | 1 to 10 µM | COc1cccc(C(NC(=O)C2CCN(CCOc3cc(F)ccc3F)CC2)c2ccccn2)c1 (stereo not drawn) [Compound 90, 1-(2-(2,5-difluorophenoxy)ethyl)-N-((3-methoxyphenyl)(pyridin-2-yl)methyl) piperidine-4-carboxamide]
> 30 µM | 0.1 to 1 µM | 1 to 10 µM | > 30 µM | O=C(NC(c1ccc(Cl)cc1)c1ccccn1)C1CCN(CCOc2ccc3ncsc3c2)CC1 (stereo not drawn) [Compound 19, 1-(2-(Benzo[d]thiazol-6-yloxy)ethyl)-N-((4-chlorophenyl)(pyridin-2-yl)methyl) piperidine-4-carboxamide]
0.1 to 1 µM | < 0.1 µM | > 30 µM | > 30 µM | Clc1ccc(C(c2ccccn2)N2CC3CCN(CCOc4ccccc4)CC3C2)cc1 (stereo not drawn) [Compound 98, 2-((4-chlorophenyl)(pyridin-2-yl)methyl)-5-(2-phenoxyethyl)octahydro-1H-pyrrolo[3,4-c]pyridine]
> 30 µM | > 30 µM | < 0.1 µM | < 0.1 µM | CC(C1CCN(CCOc2ccccc2)CC1)N(C)C(c1ccc(Cl)cc1)c1ccccn1 (stereo not drawn) [Compound 97, N-((4-chlorophenyl)(pyridin-2-yl)methyl)-N-methyl-1-(1-(2-phenoxyethyl)piperidin-4-yl)ethan-1-amine]

SMILES | EC50 (human D2R/β-arrestin [1]) | EC50 (human D2R/β-arrestin [2]) | IC50 (human D2R/β-arrestin [3]) | IC50 (human D2R/β-arrestin [4])
O=C(NC(c1cccc(OC(F)(F)F)c1)c1ccccn1)C1CCN(CCOc2ccccc2)CC1 (stereo not drawn) [Compound 118, 1-(2-phenoxyethyl)-N-(pyridin-2-yl(3-(trifluoromethoxy)phenyl)methyl) piperidine-4-carboxamide] | > 30 µM | < 0.1 µM | 1 to 10 µM | > 30 µM
